Measurements taken from patent US9573882B2, “Use of 4-[ethyl(dimethyl)ammonio]butanoate in the treatment of cardiovascular disease” (JSC GRINDEKS, priority 2009, dated 2017).

Tests used:
[1] = tested on: isolated rat heart infarction model; experiment: Isolated rat heart infarction study after daily p.o. treatment; format: in vivo, Wistar rats; conditions: for Infarct size, % of control: isolated rat heart, 60 min occlusion, 150 min reperfusion, mean ± s.e.m. of 9-10 animals; for decrease of infarct size: versus control
Experimental: Fifty male, 10 weeks old Wistar rats weighing 200-250 g were housed under standard conditions (21-23° C., 12 h light-dark cycle) with unlimited access to food (R3 diet, Lactamin AB, Sweden) and water.
Rats were adapted to local conditions for two weeks before the start of treatment. Meldonium dihydrate at a dose of 5 mg/kg or 100 mg/kg, gamma-butyrobetaine at a dose of 5 mg/kg and EG at doses of 20 mg/kg were administered p.o. daily for 8 weeks. Control rats received water.
Isolated Rat Heart Infarction Study The isolated rat heart experiment was performed essentially as described earlier (Liepinsh et al., J. Cardiovasc. Pharmacol. 2006; 48(6):314-9). Twenty-four hours after the last drug administration hearts were excised and retrogradely perfused via the aorta at a constant pressure with oxygenated Krebs-Henseleit buffer at 37° C. The heart rate, left ventricle end-diastolic pressure and left ventricle developed pressure were continuously recorded. Coronary flow was measured using an ultrasound flow detector (HSE) and the PowerLab 8/30 system from ADInstruments. The hearts were perfused for 20 min to stabilize the hemodynamic functions and then occlusion was performed for 60 min by constricting threads through a plastic tube. Successful occlusion was confirmed by a coronary flow decrease of about 40 percent. Reperfusion was achieved by releasing the threads. At the end of the 150-min reperfusion period, the risk zone was delineated with 0.1% methylene blue. The hearts were then sectioned transversely from the apex to the base in five slices 2 mm in thickness and incubated in 1% triphenyltetrazolium chloride in phosphate buffer (pH 7.4, 37° C.) for 10 min to stain viable tissue red and necrotic tissue white. Computerized planemetric analysis of Sony A900 photographs was performed using Image-Pro Plus 6.3 software to determine the area at risk and area of necrosis expressed as a % of the left ventricle. The obtained values were then used to calculate the infarct size (IS) as a % of risk area according to the formula: Infarct Size=Area of Necrosis/Area at Risk×100%.
The anti-infarction effect of examined substances was investigated in an isolated rat heart infarction model. During occlusion of left coronary artery, the coronary flow in all experimental groups was decreased for 40% (from 11 ml/min 30 to 7 ml/min). Moreover, the drop of developed left ventricular pressure for 50% was observed. […] In reperfusion stage, coronary flow, developed left ventricular pressure, ±dp/dt values were recovered till about 80% of control level. There were no significant differences between control and treatment groups.
Effects of Meldonium dihydrate (5 mg/kg un 100 mg/kg), gamma-butyrobetaine (5 mg/kg) and 4-[ethyl(dimethyl)ammonio]butanoate (EG) (5 mg/kg) after […] of treatment on infarct size in the isolated rat heart infarction experiment are presented in Table 1.

[2] = s.c.; cited from earlier work

| Structure (SMILES) | Infarct size, % of control ([1]; 5 mg/kg p.o. daily) | Infarct size, % of control ([1]; 100 mg/kg p.o. daily) | decrease of infarct size ([1]; 100 mg/kg) [%] | decrease of infarct size ([1]; dose of 5 mg/kg) [%] | therapeutical effect on infarct size ([1]; dose of 5 mg/kg) | LD50 [2] [mg/kg] |
| --- | --- | --- | --- | --- | --- | --- |
| C[N+](C)(C)NCCC(=O)[O-] [Meldonium dihydrate, 3-(2,2,2-Trimethylhydrazinium)propionate dihydrate] | 95 ± 9 % of control | 76 ± 10 % of control | 24 | 5 | – | – |
| C[N+](C)(C)CCCC(=O)[O-] [Gamma-butyrobetaine] | 90 ± 5 % of control | – | – | – | no therapeutical effect | > 7000 |
| CC[N+](C)(C)CCCC(=O)[O-] [EG, 4-[ethyl(dimethyl)ammonio]butanoate] | 59 ± 6 % of control | – | – | 41 | – | – |
